For the assay, the target named is human Factor Xa (Homo sapiens, UniProt P00742). As to the kind of experiment: In vitro assay for inhibition of Factor Xa (2), fluorogenic assay. It counts as biochemical. Particulars: substrate Rhodamine 110, bis-(CBZ-glycylglycyl-L-arginine amide 10 μM), Ki calculated from IC50. As to the method: In Vitro Assay for Inhibition of Factor Xa (2)
All other compounds of the present invention were tested for their Factor Xa inhibitory activity as determined in vitro by their ability to inhibit human Factor Xa in a fluorogenic assay, using Rhodamine 110, bis-(CBZ-glycylglycyl-L-arginine amide as the fluorogenic substrate. Compounds were diluted from a 10 mM stock solution in dimethylsulfoxide at appropriate concentrations. Assay was performed at room temperature using buffer consisting of: 50 mM Tris-HCl, 150 mM NaCl, 5 mM CaCl2, pH 7.4. containing human Factor Xa (final conc. Of 0.0003U.ml−1). Compound and enzyme were preincubated for 15 min prior to addition of the substrate (final conc. of 10 μM). The reaction was stopped after 3 hrs with the addition of H-D-PHE-PRO-ARG-Chloromethylketone. […] To obtain IC50 values the data were analysed using ActivityBase® and XLfit®.
Calculation of Ki values:
Ki=IC50/(1+[Substrate]/Km)
The Ki value for the above assay can be obtained by dividing the IC50 value by 1.6.

Where a name gives a salt, the structure may show the parent alone.

human Factor Xa, sequence (P00742 235-488 limits assumed): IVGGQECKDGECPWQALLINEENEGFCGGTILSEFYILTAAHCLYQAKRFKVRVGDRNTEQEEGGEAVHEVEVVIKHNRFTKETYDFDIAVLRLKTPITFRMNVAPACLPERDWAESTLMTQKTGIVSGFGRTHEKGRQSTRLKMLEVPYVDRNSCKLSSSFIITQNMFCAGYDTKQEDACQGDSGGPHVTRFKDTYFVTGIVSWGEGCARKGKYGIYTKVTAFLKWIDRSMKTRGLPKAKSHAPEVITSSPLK
human Factor Xa, sequence (P00742 41-179 partner limits assumed): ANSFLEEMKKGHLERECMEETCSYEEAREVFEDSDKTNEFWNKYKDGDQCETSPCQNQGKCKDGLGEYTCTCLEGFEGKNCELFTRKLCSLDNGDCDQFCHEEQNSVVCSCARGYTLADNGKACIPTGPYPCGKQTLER

By Ki is commonly meant the equilibrium dissociation constant of an inhibitor or competing ligand from its target. In the case of `O=C1[C@@H](NS(=O)(=O)c2ccc3cc(Cl)ccc3c2)CCN1c1ccc(-c2ccccc2)cc1F` [Example 74, 6-Chloro-N-[(3S)-1-(3-fluoro-1,1′-biphenyl-4-yl)-2-oxopyrrolidin-3-yl]naphthalene-2-sulfonamide], the inhibition constant (Ki) is below 0.2 µM. In the case of `O=C1[C@@H](NS(=O)(=O)c2ccc3cc(Cl)ccc3c2)CCN1c1ccc(-c2cc[n+]([O-])cc2)cc1F` [Example 76, 6-Chloro-N-{(3S)-1-[2-fluoro-4-(1-oxidopyridin-4-yl)phenyl]-2-oxopyrrolidin-3-yl}naphthalene-2-sulfonamide], the Ki is below 0.02 µM. Regarding `Cn1ccnc1-c1ccc(N2CC[C@H](NS(=O)(=O)c3ccc4cc(Cl)ccc4c3)C2=O)c(F)c1` [Example 77, 6-Chloro-N-{(3S)-1-[2-fluoro-4-(1-methyl-1H-imidazol-2-yl)phenyl]-2-oxopyrrolidin-3-yl}naphthalene-2-sulfonamide], the Ki was below 0.01 µM. The value for `O=C1[C@@H](NS(=O)(=O)c2ccc3cc(Cl)ccc3c2)CCN1c1ccc(-c2cccnc2Cl)cc1F` [Example 78, 6-Chloro-N-{(3S)-1-[4-(2-chloropyridin-3-yl)-2-fluorophenyl]-2-oxopyrrolidin-3-yl}naphthalene-2-sulfonamide] was below 0.01 µM; that for `N#Cc1ncccc1-c1ccc(N2CC[C@H](NS(=O)(=O)c3ccc4cc(Cl)ccc4c3)C2=O)c(F)c1` [Example 79, 6-Chloro-N-{(3S)-1-[4-(2-cyanopyridin-3-yl)-2-fluorophenyl-]-2-oxopyrrolidin-3-yl}naphthalene-2-sulfonamide] was below 0.01 µM.

For `O=C1[C@@H](NS(=O)(=O)/C=C/c2ccc(Cl)s2)CCN1c1ccc(-c2ccncc2Cl)cc1F` [Example 80, (E)-N-{(3S)-1-[4-(3-Chloropyridin-4-yl)-2-fluorophenyl]-2-oxopyrrolidin-3-yl}-2-(5-chlorothien-2-yl)ethenesulfonamide], the inhibition constant Ki is below 0.01 µM. The value for `O=C1[C@@H](NS(=O)(=O)c2ccc3cc(Cl)ccc3c2)CCN1c1ccc(-c2ncccn2)cc1F` [Example 81, 6-Chloro-N-[(3S)-1-(2-fluoro-4-pyrimidin-2-ylphenyl)-2-oxopyrrolidin-3-yl]naphthalene-2-sulfonamide] was below 1 µM.

As to `O=C1[C@@H](NS(=O)(=O)c2ccc3cc(Cl)ccc3c2)CCN1c1ccc(-c2ncccc2Cl)cc1F` [Example 82, 6-Chloro-N-{(3S)-1-[4-(3-chloropyridin-2-yl)-2-fluorophenyl]-2-oxopyrrolidin-3-yl}naphthalene-2-sulfonamide], the Ki is below 0.01 µM. In the case of `Cn1cnc(-c2ccc(N3CC[C@H](NS(=O)(=O)c4ccc5cc(Cl)ccc5c4)C3=O)c(F)c2)c1` [Example 84, 6Chloro-N-{(3S)-1-[2-fluoro-4-(1-methyl-1H-imidazol-4-yl)phenyl]-2-oxopyrrolidin-3-yl}naphthalene-2-sulfonamide Formate], the Ki was below 0.02 µM. The value for `CS(=O)(=O)c1ccccc1-c1ccc(N2CC[C@H](NS(=O)(=O)c3cnc(-c4ccc(Cl)s4)s3)C2=O)c(F)c1` [Example 86, 2-(5-Chlorothien-2-yl)-N-{(3S)-1-[3-fluoro-2′-(methylsulfonyl)-1,1′-biphenyl-4-yl]-2-oxopyrrolidin-3-yl}-1,3-thiazole-5-sulfonamide] was below 0.02 µM; that for `CS(=O)(=O)c1ccccc1-c1ccc(N2CC[C@H](NS(=O)(=O)c3cc4sc(Cl)cc4s3)C2=O)c(F)c1` [Example 87, 5-Chloro-N-{(3S)-1-[3-fluoro-2′-(methylsulfonyl)-1,1′-biphenyl-4-yl]-2-oxopyrrolidin-3-yl}thieno[3.2-b]thiophene-2-sulfonamide] was below 0.01 µM. `CS(=O)(=O)c1ccccc1-c1ccc(N2CC[C@H](NS(=O)(=O)c3c(Cl)sc4ccsc34)C2=O)c(F)c1` [Example 88, 2-Chloro-N-{(3S)-1-[3-fluoro-2′-(methylsulfonyl)-1,1′-biphenyl-4-yl]-2-oxopyrrolidin-3-yl}thieno[3.2-b]thiophene-3-sulfonamide]: the inhibition constant (Ki) is below 0.02 µM.

For the molecule `O=C1[C@@H](NS(=O)(=O)c2ccc(-c3ccc(Cl)s3)s2)CCN1c1ccc(I)cc1F` [Example 92, 5′-Chloro-N-[(3S)-1-(2-fluoro-4-iodophenyl)-2-oxopyrrolidin-3-yl]-2,2′-bithiophene-5-sulfonamide], the Ki is below 0.01 µM.

`O=C1[C@H](NS(=O)(=O)c2cc3ccc(Cl)cc3s2)CCN1c1ccc([N+](=O)[O-])cc1F` [Example 94, 6-Chloro-N-[(3R)-1-(2-fluoro-4-nitrophenyl)-2-oxopyrrolidinyl]-1-benzothiophene-2-sulfonamide]: the Ki is below 0.2 µM. The value for `O=C1[C@@H](NS(=O)(=O)/C=C/c2ccc(Cl)s2)CCN1c1ccc([N+](=O)[O-])cc1F` [Example 95, (E)-2-(5-Chloro-2-thienyl)-N-[(3S)-1-(2-fluoro-4-nitrophenyl)-2-oxopyrrolidinyl]ethenesulfonamide] was below 0.02 µM; that for `O=C1[C@@H](NS(=O)(=O)c2ccc(-c3ccc(Cl)s3)s2)CCN1c1ccc([N+](=O)[O-])cc1F` [Example 96, 5′-Chloro-N-[(3S)-1-(2-fluoro-4-nitrophenyl)-2-oxopyrrolidin-3-yl]-2,2′-bithiophene-5-sulfonamide] was below 0.02 µM; that for `N#Cc1ccc(N2CC[C@H](NS(=O)(=O)c3cc4ccc(Cl)cc4s3)C2=O)c(F)c1` [Example 97, 6-Chloro-N-[(3S)-1-(4-cyano-2-fluorophenyl)-2-oxopyrrolidin-3-yl]-1-benzothiophene-2-sulfonamide] was below 0.01 µM. The value for `N#Cc1ccc(N2CC[C@H](NS(=O)(=O)/C=C/c3ccc(Cl)s3)C2=O)c(F)c1` [Example 98, (E)-2-(5-Chlorothien-2-yl)-N-[(3S)-1-(4-cyano-2-fluorophenyl)-2-oxopyrrolidin-3-yl]ethenesulfonamide] was below 0.2 µM. For `N#Cc1ccc(N2CC[C@H](NS(=O)(=O)CCc3ccc(Cl)s3)C2=O)c(F)c1` [Example 99, 2-(5-Chlorothien-2-yl)-N-[(3S)-1-(4-cyano-2-fluorophenyl)-2-oxopyrrolidin-3-yl]ethanesulfonamide], the inhibition constant (Ki) was below 0.2 µM.

Consider `O=C1[C@@H](NS(=O)(=O)c2ccc3cc(Cl)ccc3c2)CCN1c1ccccc1F` [Example 101, 6-Chloro-N-[(3S)-1-(2-fluorophenyl)-2-oxopyrrolidin-3-yl]naphthalene-2-sulfonamide], for which the Ki is below 1 µM.

In the case of `O=C1[C@@H](NS(=O)(=O)c2ccc3cc(Cl)ccc3c2)CCN1c1ccc(N2CCOCC2)c(F)c1` [Example 103, 6-Chloro-N-{(3S)-1-[3-fluoro-4-(4-morpholinyl)phenyl]-2-oxopyrrolidinyl}-2-naphthalenesulfonamide], the Ki is below 1 µM. Take `NC(=O)c1ccc(N2CC[C@H](NS(=O)(=O)/C=C/c3ccc(Cl)s3)C2=O)nc1` [Example 106, 6-[(3S)-3-({[(E)-2-(5-Chlorothien-2-yl)ethenyl]sulfonyl}amino)-2-oxopyrrolidin-1-yl]nicotinamide]: the Ki is below 0.2 µM. `CN(C)C(=O)c1ccc(N2CC[C@H](NS(=O)(=O)c3cc4ccc(Cl)cc4s3)C2=O)c(F)c1` [Example 109, 4-((3S)-3-{[(6-Chloro-1-benzothien-2-yl)sulfonyl]amino}-2-oxopyrrolidin-1-yl)-3-fluoro-N,N-dimethylbenzamide]: the inhibitory constant (Ki) is below 0.01 µM. The value for `C/C(=C\S(=O)(=O)N[C@H]1CCN(c2ccc(C(=O)N(C)C)cc2F)C1=O)c1ccc(Cl)s1` [Example 110, 4-[(3S)-3({[(1E)-2-(5-Chlorothien-2-yl)prop-1-enyl]sulfonyl}amino)-2-oxopyrrolidin-1-yl]-3-fluoro-N,N-dimethylbenzamide] was below 0.01 µM; that for `CC(C)N(C)C(=O)c1ccc(N2CC[C@H](NS(=O)(=O)c3cc4ccc(Cl)cc4s3)C2=O)c(F)c1` [Example 111, 4-((3S)-3-{[(6-Chloro-1-benzothien-2-yl)sulfonyl]amino}-2-oxopyrrolidin-1-yl)-3-fluoro-N-isopropyl-N-methylbenzamide] was below 1 µM; that for `CC(=O)c1ccc(N2CC[C@H](NS(=O)(=O)/C=C/c3ccc(Cl)s3)C2=O)nc1` [Example 113, (E)-N-[(3S)-1-(5-Acetylpyridin-2-yl)-2-oxopyrrolidin-3yl]-2-(5-chlorothien-2-yl)ethenesulfonamide] was below 0.2 µM. With `CC(=O)Nc1ccc(N2CC[C@H](NS(=O)(=O)c3cc4ccc(Cl)cc4s3)C2=O)c(F)c1` [Example 117, N-[4-((3S)-3-{[(6-Chloro-1-benzothien-2-yl)sulfonyl]amino}-2-oxopyrrolidinyl)-3-fluorophenyl]acetamide], the inhibition constant Ki is below 1 µM.

For `CCC(=O)Nc1ccc(N2CC[C@H](NS(=O)(=O)c3cc4ccc(Cl)cc4s3)C2=O)c(F)c1` [Example 118, N-[4-((3S)-3-{[(6-Chloro-1-benzothien-2-yl)sulfonyl]amino}-2-oxopyrrolidinyl)-3-fluorophenyl]propanamide], the Ki is below 1 µM. The value for `CC(C)N(C=O)c1ccc(N2CC[C@H](NS(=O)(=O)/C=C/c3ccc(Cl)s3)C2=O)c(F)c1` [Example 120, (E)-2-(5-Chlorothien-2-yl)-N-((3S)-1-{2-fluoro-4-[formyl(isopropyl)amino]phenyl}-2-oxopyrrolidin-3-yl)ethenesulfonamide] was below 0.01 µM; that for `CC(C)N(C=O)c1ccc(N2CC[C@H](NS(=O)(=O)c3cc4ccc(Cl)cc4s3)C2=O)c(F)c1` [Example 121, 6-Chloro-N-((3S)-1-{2-fluoro-4-[formyl(isopropyl)amino]phenyl}-2-oxopyrrolidin-3-yl)-1-benzothiophene-2-sulfonamide] was below 0.02 µM.

The values above are taken from US20050059726A1, “Pyrrolidine-2-ones as factor xa inhibitors” (priority 2001, published 2005).
